In US10913781B2, “Pepducin design and use” (Tufts Medical Center, Inc., priority 2011, dated 2021):
Peptide text beside a SMILES is read from it. * marks the point of attachment. Palmitoyl = CCCCCCCCCCCCCCCC(=O)*

Key:
PAR1 [1] = target: T1, PAR1 (Homo sapiens, UniProt P25116); test: ERK1/2 phosphorylation in A549 cells (thrombin or […]), Western blot; assay type: cell-based; set-up: endogenous in cells; host or cells: A549, HOP62, H1299, H522, H226, HOP92 lung carcinoma lines; conditions: A549 cells; pepducin 0.1-3 μM
T1 sequence (P25116 22-425): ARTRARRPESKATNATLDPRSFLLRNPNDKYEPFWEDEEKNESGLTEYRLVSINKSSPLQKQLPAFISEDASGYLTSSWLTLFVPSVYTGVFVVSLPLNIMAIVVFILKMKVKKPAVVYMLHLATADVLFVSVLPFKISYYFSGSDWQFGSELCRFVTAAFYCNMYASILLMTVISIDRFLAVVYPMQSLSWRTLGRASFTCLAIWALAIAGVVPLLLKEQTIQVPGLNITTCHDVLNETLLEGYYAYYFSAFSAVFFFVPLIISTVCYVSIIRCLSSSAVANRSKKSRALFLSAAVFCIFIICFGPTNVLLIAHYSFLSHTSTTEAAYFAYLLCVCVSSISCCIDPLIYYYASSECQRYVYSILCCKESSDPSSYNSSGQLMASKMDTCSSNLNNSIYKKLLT
Description: FIG. 9 illustrates that differential inhibition of PAR1-ERK activation by i3- and i1-derived PAR1 pepducins. (A-C): Western blots of lysates from A549 cells untreated, or treated with thrombin, SLIGKV (SEQ ID NO:29), or AYPGKF (SEQ ID NO:5). Indicated samples were pretreated with various concentrations (0.1 to 3 μmol/L) of P1pal-7, P1pal-10S, or P1pal-i1-11 before stimulation and immunoblotted with anti-phospho-ERK. (D-F): Quantification of the Western blots in (A-C) were conducted by densitometry and results are expressed relative to maximum (fold max) phosphorylation of pERK.
(B): A549 cells stimulated with 10 μM […] over 2 h. A549 cells pretreated with 0.1 μM P1pal-7 and stimulated with 10 μM […] (SEQ ID NO:30) for 5 min. Total ERK was used as a loading control.
Last, there has been a great deal of interest in understanding the mechanism of PAR1-mediated activation of MAP kinase cascade and PAR1-dependent cellular growth and differentiation, proliferation and gene transcription. […] The effects of i1 versus i3 PAR1 pepducins on ERK1/2 activation were examined in the A549 lung adenocarcinoma cell line. […] Inhibition experiments with a range of pepducin concentrations (0.1-3 μM) were conducted. […] The […] (SEQ ID NO:30) peptide gave a rapid and transient ERK1/2 phosphorylation signal that peaked at 5-15 min after stimulation. […] To determine the specificity of the PAR1 pepducin inhibitors, their effects on the closely related PAR2 and PAR4 receptors were also tested.

PAR1 [2] = target: T1, PAR1; test: Ligand-dependent endocytosis of PAR1; assay type: cell-based
PAR2 [3] = target: PAR2 (Mus musculus, UniProt P55086); test: Mast cell conditioned media-induced mouse paw edema; assay type: in vivo; set-up: from tissue; host or cells: living C57BL/6 mice, hindpaw; conditions: 10 mg/kg
Description: (A) Mast cells were treated with 2 mg/mL of mast cell degranulating agent 48/80 or 2% 1-carrageenan/4% kaolin. […] (B) P2pal-18S inhibits human neutrophil chemotaxis (n=6) to mast cell media. Human neutrophils were incubated with […] P2pal-18S, or […] mast cell tryptase inhibitor APC-366 and allowed to migrate 30 min toward CM from mast cells. (C) C57BL/6 mice (n=5) were pretreated with the tryptase inhibitor APC-366 (5 mg/kg, s.c.) or vehicle (20% DMSO) and then challenged with intraplantar injection of 1-carrageenan/kaolin. (D) Mast cell conditioned media (30 μL of 1-carrageenan/kaolin stimulated media) was injected into the hindpaws of C57BL/6 mice treated with 10 mg/kg P2pal-18S or vehicle (n=5). Data represent mean±SEM. #, P=0.07, *, P<0.05 and **, P<0.005. (E) Mast cell-deficient mice have a significant reduction in 1-carrageenan/kaolin induced paw edema (8 h time point, n=4-6) as compared to littermate controls. Mast-cell deficient mice or littermate controls with intact mast cells were treated with P2pal-18S (10 mg/kg, s.c.) or vehicle and hind paws challenged with 1-carrageenan/kaolin irritant. Error bars represent mean±SEM.
To examine whether mast cells and mast cell tryptase were activating PAR2 in the paw edema model in vivo, mice were depleted of mast cells through pretreatment with compound 48/80 (Carvalho M et al. Eur J Pharmacol (2005), 525: 161-169). […]

PAR2 [4] = target: PAR2 (Homo sapiens, UniProt P55085); test: Human neutrophil chemotaxis to PAR2 agonists (trypsin, SLIGRL, tryptase); assay type: cell-based; set-up: SW620 colon adenocarcinoma cells that endogenously express PAR2; endogenous in cells; host or cells: SW620 (in A7 the SW620 cells were additionally stably transfected with PAR1)
Description: (A) Human neutrophils (n=4 normal volunteers) were analyzed for surface expression of human PAR1, PAR2, and PAR4 by flow cytometry with PAR-specific antibodies. […] Chemotaxis index is the ratio of directed versus random migration over 30 min through a 5-μm pore filter.
The ability of some pepducin embodiments of the invention to antagonize PAR2-dependent activity of human neutrophils was tested. Neutrophils were isolated from the peripheral blood of healthy human volunteers and found to express high levels of surface PAR2 and PAR4 and lower apparent levels of PAR1 by flow cytometry (FIG. 3A). […] As human PAR2 shares 85% identity with mouse PAR2 and the mouse i3 loop retains all of the critical pharmacophores identified in the human PAR2 i3 loop, cross-species inhibition with mouse cells was tested.

PAR2 (Homo sapiens, UniProt P55085), sequence (P55085 26-397): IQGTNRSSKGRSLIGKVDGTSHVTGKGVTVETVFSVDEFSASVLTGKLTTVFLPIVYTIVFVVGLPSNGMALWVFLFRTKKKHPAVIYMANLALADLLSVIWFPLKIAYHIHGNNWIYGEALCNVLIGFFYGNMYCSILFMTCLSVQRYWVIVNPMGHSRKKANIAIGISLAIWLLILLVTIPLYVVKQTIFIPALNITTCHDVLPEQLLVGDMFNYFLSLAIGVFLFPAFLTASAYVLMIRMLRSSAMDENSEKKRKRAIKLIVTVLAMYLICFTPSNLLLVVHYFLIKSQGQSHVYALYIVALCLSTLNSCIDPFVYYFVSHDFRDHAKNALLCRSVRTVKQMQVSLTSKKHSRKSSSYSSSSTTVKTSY
PAR2 (Mus musculus, UniProt P55086), sequence (P55086 26-399): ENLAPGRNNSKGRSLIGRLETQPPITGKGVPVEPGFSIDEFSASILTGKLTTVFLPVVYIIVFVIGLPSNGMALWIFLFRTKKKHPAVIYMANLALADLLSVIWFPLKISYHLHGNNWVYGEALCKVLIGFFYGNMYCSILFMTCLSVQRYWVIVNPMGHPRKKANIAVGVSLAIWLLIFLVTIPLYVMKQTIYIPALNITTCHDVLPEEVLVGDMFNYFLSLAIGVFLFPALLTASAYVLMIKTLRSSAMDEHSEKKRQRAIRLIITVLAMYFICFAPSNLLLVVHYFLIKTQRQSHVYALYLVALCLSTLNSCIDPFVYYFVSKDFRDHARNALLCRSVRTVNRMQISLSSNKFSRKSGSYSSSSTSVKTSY

Compound | Effect on thrombin-induced ERK1/2 phosphorylation (PAR1 [1]) | Inhibition of ligand-dependent endocytosis of PAR1 (PAR1 [2]) | Decrease in peak development of edema (PAR2 [3]; at 4 h, mast cell media intraplantar) [%] | Protection against edema at later times (PAR2 [3]; at 8 h and thereafter) | Inhibition of chemotactic migration to tryptase (PAR2 [4]; 0.3 μM pepducin, 100 nM tryptase) | IC50 (PAR2 [4]; gradients of trypsin (30 nM) and SLIGRL (10 μM), 30 min, read-out: IC50, inhibition of neutrophil chemotaxis) [nM]
CCCCCCCCCCCCCCCC(=O)N[C@H](C(=O)N[C@@H](CC(C)C)C(=O)N[C@@H](CCCCN)C(=O)N[C@@H](CCSC)C(=O)N[C@@H](CCCCN)C(=O)N[C@H](C(=O)N[C@@H](CCCCN)C(=O)N[C@@H](CCCCN)C(=O)N1CCC[C@H]1C(=O)N[C@@H](C)C(=O)N[C@H](C(N)=O)C(C)C)C(C)C)[C@@H](C)CC [P1pal-i1-11] (Palmitoyl-ILKMKVKKPAV-NH2) | no effect |  |  |  |  | 
CCCCCCCCCCCCCCCC(=O)N[C@@H](CCCNC(=N)N)C(=O)N[C@@H](CO)C(=O)N[C@@H](CO)C(=O)N[C@@H](C)C(=O)N[C@@H](CCSC)C(=O)N[C@@H](CC(=O)O)C(=O)N[C@@H](CCC(=O)O)C(=O)N[C@@H](CC(N)=O)C(=O)N[C@@H](CO)C(=O)N[C@@H](CCC(=O)O)C(=O)N[C@@H](CCCCN)C(=O)N[C@@H](CCCCN)C(=O)N[C@@H](CCCNC(=N)N)C(=O)N[C@@H](CCCCN)C(=O)N[C@@H](CO)C(=O)N[C@@H](C)C(=O)N[C@H](C(=O)N[C@@H](CCCCN)C(N)=O)[C@@H](C)CC [P2pal-18S] |  | did not inhibit | 50 | complete protection | completely blocked | 140 to 200
